Test results as given in the supplement of paper PMC10307832.

Columns and labels:
[1] = compound: CC1=C(C(=NN1)C)CC2=C(C3=C(S2)N(C(=O)N(C3=O)C)CC(C)C)C(=O)N4C[C@@H](CO4)O + Cc1nc(Nc2ncc(C(=O)Nc3c(C)cccc3Cl)s2)cc(N2CCN(CCO)CC2)n1 [Dasatinib] (partner 0.075 µM); assay: relative viability (nuclei count vs DMSO), 5 days (fraction); higher = more cells survive
How it was run: (§1)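 The day after seeding in 1536-well plates, lung cancer cell lines were treated by pin tool with a single drug, or with a fixed anchor-drug dose together with five library-drug doses (not always all listed) in √10 steps. After 5 days, a combined fix-and-stain solution (final 0.05% Triton X-100, 1% formaldehyde, 1 ug/ml Hoechst) was added. Nuclei counted on 4× images gave relative viability as treated counts over vehicle counts, reported as the median of duplicate plates.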

[2] = compound: CC1=C(C(=NN1)C)CC2=C(C3=C(S2)N(C(=O)N(C3=O)C)CC(C)C)C(=O)N4C[C@@H](CO4)O + CCNC(=O)c1noc(-c2cc(C(C)C)c(O)cc2O)c1-c1ccc(CN2CCOCC2)cc1 [Luminespib] (partner 0.01 µM); assay: as above
How it was run: as §1

Cell Line	relative viability ([1]; first compound 0.0025 µM)	relative viability ([1]; first compound 0.007906 µM)	relative viability ([1]; first compound 0.025 µM)	relative viability ([1]; first compound 0.07906 µM)	relative viability ([1]; first compound 0.25 µM)	relative viability ([2]; first compound 0.0025 µM)	relative viability ([2]; first compound 0.007906 µM)	relative viability ([2]; first compound 0.025 µM)	relative viability ([2]; first compound 0.07906 µM)	relative viability ([2]; first compound 0.25 µM)
NCI-H522	0.971	0.97	0.763	0.649	0.662	1.29	1.22	1.11	0.644	0.586
HCC-15	0.605	0.601	0.682	0.574	0.656	0.378	0.518	0.236	0.43	0.337
A-427	0.746	0.84	0.727	0.733	0.764	0.949	1.19	0.921	1.03	0.957
NCI-H2228	0.507	0.644	0.453	0.521	0.602	0.145	0.161	0.207	0.111	0.144
NCI-H1734	0.504	0.543	0.453	0.484	0.473	0.297	0.184	0.173	0.184	0.167
PC-14	0.281	0.261	0.254	0.278	0.269	0.119	0.179	0.286	0.276	0.196
NCI-H1915	0.284	0.374	0.338	0.3	0.291	0.868	0.738	0.75	0.768	0.816
NCI-H1666	0.796	0.88	0.776	0.798	0.923	0.991	1	1.06	1.04	1.1
HCC-366	0.601	0.813	0.836	0.635	0.789	–	–	–	–	–
SK-MES-1	0.389	0.367	0.371	0.337	0.314	1.01	0.782	0.969	0.846	0.888
SW 1573	0.451	0.681	0.402	0.501	0.597	0.32	0.322	0.443	0.213	0.332
NCI-H661	0.907	0.833	0.906	0.881	0.872	0.877	0.938	0.824	0.913	0.885
PC-3 [JPC-3]	1.06	0.939	0.94	0.908	0.975	0.801	0.601	0.699	0.773	0.786
NCI-H1623	0.505	0.513	0.549	0.442	0.453	0.64	0.601	0.503	0.499	0.554
LC-2-ad	0.726	0.474	0.626	0.545	0.588	0.967	1.13	0.968	1.01	1.17
CAL-12T	0.49	0.475	0.465	0.317	0.343	0.393	0.895	0.315	0.303	0.404
RERF-LC-KJ	0.874	0.946	0.751	0.855	0.804	1.25	1.36	1.22	1.16	1.32
NCI-H1650	0.425	0.362	0.287	0.457	0.227	0.188	0.192	0.203	0.192	0.217
BEN	0.296	0.289	0.277	0.274	0.298	0.235	0.383	0.242	0.335	0.325
EMC-BAC-2	0.341	0.364	0.326	0.336	0.34	1.17	1.23	1.2	1.32	1.29
LU99A	0.584	0.502	0.533	0.508	0.462	0.337	0.297	0.203	0.224	0.237
ABC-1	–	0.346	–	0.453	0.517	–	0.606	–	0.349	0.531
NCI-H2170	0.56	0.592	0.589	0.412	0.552	0.607	0.79	0.753	0.725	0.793

Cell Line	relative viability ([1]; first compound 0.0025 µM)	relative viability ([1]; first compound 0.007906 µM)	relative viability ([1]; first compound 0.025 µM)	relative viability ([1]; first compound 0.07906 µM)	relative viability ([1]; first compound 0.25 µM)	relative viability ([2]; first compound 0.0025 µM)	relative viability ([2]; first compound 0.007906 µM)	relative viability ([2]; first compound 0.025 µM)	relative viability ([2]; first compound 0.07906 µM)	relative viability ([2]; first compound 0.25 µM)
NCI-H2347	0.394	0.323	0.299	0.234	0.257	0.563	0.371	0.447	0.362	0.246
NCI-H1993	0.614	0.497	0.572	0.596	0.517	0.727	0.706	0.765	0.65	0.749
NCI-H322M	0.257	0.254	0.271	0.201	0.245	0.927	0.714	0.86	0.887	0.861
NCI-H838	0.347	0.322	0.276	0.197	0.304	0.295	0.265	0.312	0.273	0.239
HARA	0.243	0.263	0.28	0.231	0.235	0.847	1.12	0.726	0.543	0.933
NCI-H2087	0.715	0.924	0.844	0.769	0.905	0.142	0.217	0.175	0.168	0.16
NCI-H1437	0.393	0.409	0.314	0.488	0.434	1.13	1.14	1.04	1.19	1.16
NCI-H2342	0.297	0.348	0.283	0.322	0.352	0.768	0.79	0.855	0.784	0.602
NCI-H1792	0.836	0.947	0.813	0.569	0.687	0.458	0.488	0.416	0.338	0.379
ChaGo-K-1	0.616	0.605	0.565	0.503	0.513	0.671	0.597	0.583	0.677	0.546
NCI-H650	0.493	0.548	0.365	0.514	0.443	0.84	0.798	0.72	0.829	0.951
COR-L23	0.561	0.533	0.427	0.375	0.449	0.756	0.744	0.666	0.549	0.765
COR-L 105	0.477	0.298	0.34	0.273	0.341	0.739	0.807	0.533	0.638	0.617
LK-2	0.231	0.296	0.308	0.253	0.275	0.219	0.148	0.223	0.202	0.186
201T	0.579	0.624	0.6	0.59	0.551	1.04	1.1	1.05	1.04	1.05
HCC-44	–	–	–	–	–	0.97	1.11	1.03	0.958	1.38
NCI-H596	0.586	0.619	0.658	0.512	0.594	0.991	1.12	0.992	1.03	1.24
H3255	0.42	0.319	0.283	0.343	0.347	0.953	1.04	0.861	0.944	0.887
NCI-H647	0.408	0.241	0.194	0.112	0.15	0.135	0.138	0.171	0.325	0.163
NCI-H2023	0.671	0.789	0.601	0.55	0.625	0.868	0.945	0.725	0.603	0.737
NCI-H23	0.926	1.05	0.82	0.725	0.964	0.242	–	–	0.23	0.219
NCI-H1944	0.238	0.253	0.235	0.234	0.221	0.81	1.11	0.714	0.698	0.801
NCI-H1793	0.428	0.375	0.39	0.362	0.377	0.608	0.17	0.208	0.164	0.187

Cell Line	relative viability ([1]; first compound 0.0025 µM)	relative viability ([1]; first compound 0.007906 µM)	relative viability ([1]; first compound 0.025 µM)	relative viability ([1]; first compound 0.07906 µM)	relative viability ([1]; first compound 0.25 µM)	relative viability ([2]; first compound 0.0025 µM)	relative viability ([2]; first compound 0.007906 µM)	relative viability ([2]; first compound 0.025 µM)	relative viability ([2]; first compound 0.07906 µM)	relative viability ([2]; first compound 0.25 µM)
NCI-H520	0.231	0.194	0.161	0.154	0.179	0.211	0.24	0.217	0.199	0.185
NCI-H460	0.552	0.675	0.532	0.517	0.494	0.0312	0.0506	0.037	0.0359	0.028
EKVX	0.61	0.53	0.544	0.302	0.303	0.948	0.955	0.852	0.764	0.928
NCI-H358	0.18	0.198	0.166	0.162	0.15	0.342	0.471	0.401	0.447	0.308
EPLC-272H	0.527	0.376	0.418	0.24	0.305	0.738	0.197	0.235	0.498	0.417
NCI-H1563	0.503	0.439	0.418	0.404	0.491	0.553	0.542	0.524	0.492	0.509
NCI-H1395	0.412	0.412	0.352	0.32	0.335	0.768	0.785	0.607	0.461	0.631
NCI-H2126	0.695	0.591	0.659	0.53	0.585	0.959	0.845	0.878	0.892	0.951
LXF-289	0.248	0.241	0.226	0.142	0.247	0.774	0.684	0.56	0.613	0.783
NCI-H2009	0.354	0.301	0.253	0.247	0.267	1.07	1.06	1.06	1.13	1.02
SW 900	0.768	0.696	0.614	0.476	0.559	0.186	0.182	0.16	0.189	0.15
NCI-H2405	0.216	0.223	–	0.238	0.224	0.778	0.849	–	0.706	0.684
NCI-H1755	0.497	0.343	0.456	0.359	0.417	0.592	0.511	0.524	0.356	0.438
HCC-78	0.392	0.486	0.374	0.366	0.236	–	–	–	–	–
LOU-NH91	0.61	0.588	0.55	0.54	0.619	0.371	0.359	0.331	0.363	0.223
NCI-H3122	0.988	1.03	0.663	0.775	0.889	0.088	0.101	0.0902	0.0646	0.11
HCC-827	0.288	0.317	0.32	0.203	0.24	0.748	0.445	0.56	0.513	0.482
SK-LU-1	0.194	0.195	0.192	0.169	0.182	0.187	0.177	0.182	0.183	0.182
NCI-H1975	0.41	0.36	0.394	0.343	0.39	0.237	0.294	0.168	0.16	0.147
NCI-H1651	0.445	0.372	0.352	0.348	0.345	0.843	0.762	0.969	0.855	1.09
NCI-H441	0.65	0.59	0.679	0.411	0.583	0.413	0.405	0.326	0.365	0.269
